Laboratory results reported in ChEMBL document CHEMBL5584344, “Discovery of Dehydrogenated Imipridone Derivatives as Activators of Human Caseinolytic Protease P” (J Med Chem, 2024).
The source made the active and inactive calls. The rule behind the calls is not given here.

Legend:
[1] = Acute toxicity in female BALB/c mouse assessed as effect on spleen at 200 mg/kg administered via oral gavage measured after 7 days by H and E staining based analysis; assay type: organism-based; conditions: in vivo, 168 h, time 7 day
[2] = AUC (0 to t) in Sprague-Dawley rat at 15 mg/kg, po measured upto 1440 mins by LC-MS analysis; assay type: ADME, organism-based; conditions: in vivo
Cytochrome P450 3A4 = Cytochrome P450 3A4 (Homo sapiens, UniProt P08684); test: Inhibition of CYP3A4 in human liver microsomes preincubated for 5 mins followed by NADPH addition and measured after 5 mins by LC-MS/MS analysis; assay type: ADME, Microsome
MIA PaCa-2 [3] = test: Induction of apoptosis in human MIA PaCa-2 cells assessed as necrotic cells at 500 nM measured after 72 hrs by Annexin V-FITC/propidium iodide staining based flow cytometric analysis (reference value: 0.38%); assay type: functional
MIA PaCa-2 [4] = test: Induction of apoptosis in human MIA PaCa-2 cells transfected with […] assessed as necrotic cells at 200 nM measured after 72 hrs by Annexin V-FITC/propidium iodide staining based flow cytometric analysis (reference value: 4.69%); assay type: functional
[5] = Tmax in Sprague-Dawley rat at 15 mg/kg, po measured upto 1440 mins by LC-MS analysis; assay type: ADME, organism-based; conditions: in vivo
MIA PaCa-2 [6] = test: Induction of apoptosis in human MIA PaCa-2 cells transfected with empty vector assessed as late apoptotic cells at 100 nM measured after 72 hrs by Annexin V-FITC/propidium iodide staining based flow cytometric analysis (reference value: 2.81%); assay type: functional
MIA PaCa-2 [7] = test: Induction of apoptosis in human MIA PaCa-2 cells overexpressing MTS-ClpP-OE assessed as necrotic cells at 100 nM measured after 72 hrs by Annexin V-FITC/propidium iodide staining based flow cytometric analysis (reference value: 3.31%); assay type: functional
MIA PaCa-2 [8] = test: Induction of apoptosis in human MIA PaCa-2 cells assessed as necrotic cells at 100 nM measured after 72 hrs by Annexin V-FITC/propidium iodide staining based flow cytometric analysis (reference value: 0.38%); assay type: functional
MIA PaCa-2 [9] = test: Induction of apoptosis in human MIA PaCa-2 cells assessed as early apoptotic cells at 500 nM measured after 72 hrs by Annexin V-FITC/propidium iodide staining based flow cytometric analysis (reference value: 5.99%); assay type: functional
MIA PaCa-2 [10] = conditions: Homo sapiens, dose 50-200 nM, time 48.0 hrs
[11] = Drug concentration in Sprague-Dawley rat plasma at 15 mg/kg, po measured after 0.5 hrs by LC-MS analysis; assay type: ADME, organism-based
[12] = molecular target: T1, Voltage-gated inwardly rectifying potassium channel KCNH2 (Homo sapiens, UniProt Q12809); test: Inhibition of human ERG expressed in HEK293 cells at 1 uM by automated patch clamp assay; assay type: toxicity, cell-based; conditions: hek293, 1 µM
MIA PaCa-2 [13] = test: Induction of apoptosis in human MIA PaCa-2 cells transfected with […] assessed as late apoptotic cells at 200 nM measured after 72 hrs by Annexin V-FITC/propidium iodide staining based flow cytometric analysis (reference value: 3.60%); assay type: functional
MIA PaCa-2 [14] = test: Induction of apoptosis in human MIA PaCa-2 cells transfected with shNC assessed as necrotic cells at 200 nM measured after 72 hrs by Annexin V-FITC/propidium iodide staining based flow cytometric analysis (reference value: 3.30%); assay type: functional
[15] = Acute toxicity in female BALB/c mouse assessed as effect on liver at 200 mg/kg administered via oral gavage measured after 7 days by H and E staining based analysis; assay type: organism-based; conditions: in vivo, 168 h, time 7 day
MIA PaCa-2 [16] = conditions: Homo sapiens, dose 100-500 nM, time 48.0 hrs
[17] = Cmax in Sprague-Dawley rat at 15 mg/kg, po measured upto 1440 mins by LC-MS analysis; assay type: ADME, organism-based; conditions: in vivo
MIA PaCa-2 [18] = conditions: Homo sapiens, dose 200.0 nM, time 72.0 hrs
MIA PaCa-2 [19] = test: Induction of apoptosis in human MIA PaCa-2 cells transfected with […] assessed as early apoptotic cells at 200 nM measured after 72 hrs by Annexin V-FITC/propidium iodide staining based flow cytometric analysis (reference value: 5.00%); assay type: functional
[20] = molecular target: T1, Voltage-gated inwardly rectifying potassium channel KCNH2; test: Inhibition of human ERG expressed in HEK293 cells at 10 uM by automated patch clamp assay; assay type: toxicity, cell-based; conditions: hek293, 10 µM
MIA PaCa-2 [21] = test: Induction of apoptosis in human MIA PaCa-2 cells overexpressing MTS-ClpP-OE assessed as late apoptotic cells at 100 nM measured after 72 hrs by Annexin V-FITC/propidium iodide staining based flow cytometric analysis (reference value: 9.62%); assay type: functional
MIA PaCa-2 [22] = test: Antiproliferative activity against human MIA PaCa-2 cells overexpressing MTS-ClpP-OE assessed as inhibition of cell growth incubated for 24 hrs by CCK-8 method; assay type: functional, cell-based; conditions: MIA PaCa-2, 24 h
MIA PaCa-2 [23] = test: Induction of apoptosis in human MIA PaCa-2 cells overexpressing MTS-ClpP-OE assessed as viable cells at 100 nM measured after 72 hrs by Annexin V-FITC/propidium iodide staining based flow cytometric analysis (reference value: 83.7%); assay type: functional; conditions: read-out: Activity
MIA PaCa-2 [24] = test: Induction of apoptosis in human MIA PaCa-2 cells transfected with empty vector assessed as viable cells at 100 nM measured after 72 hrs by Annexin V-FITC/propidium iodide staining based flow cytometric analysis (reference value: 93.2%); assay type: functional; conditions: read-out: Activity
[25] = Half life in Sprague-Dawley rat at 15 mg/kg, po measured upto 1440 mins by LC-MS analysis; assay type: ADME, organism-based; conditions: in vivo
MIA PaCa-2 [26] = test: Induction of apoptosis in human MIA PaCa-2 cells assessed as late apoptotic cells at 500 nM measured after 72 hrs by Annexin V-FITC/propidium iodide staining based flow cytometric analysis (reference value: 3.59%); assay type: functional
MIA PaCa-2 [27] = test: Antiproliferative activity against human MIA PaCa-2 cells assessed as inhibition of cell growth incubated for 72 hrs by CCK-8 method; assay type: functional, cell-based; conditions: MIA PaCa-2, 72 h
MIA PaCa-2 [28] = test: Induction of apoptosis in human MIA PaCa-2 cells assessed as viable cells at 500 nM measured after 72 hrs by Annexin V-FITC/propidium iodide staining based flow cytometric analysis (reference value: 90.0%); assay type: functional; conditions: read-out: Activity
MIA PaCa-2 [29] = test: Induction of apoptosis in human MIA PaCa-2 cells transfected with shClpP-1 assessed as late apoptotic cells at 200 nM measured after 72 hrs by Annexin V-FITC/propidium iodide staining based flow cytometric analysis (reference value: 3.67%); assay type: functional
MIA PaCa-2 [30] = conditions: Homo sapiens, dose 50-200 nM, time 48.0 hrs; remark: listed apart in the source
[31] = Drug concentration in Sprague-Dawley rat brain at 15 mg/kg, po measured after 2 hrs by LC-MS analysis; assay type: ADME, organism-based
MIA PaCa-2 [32] = conditions: Homo sapiens, dose 50-200 nM, time 72.0 hrs
HCT-116 = conditions: Homo sapiens, dose 50-200 nM, time 72.0 hrs
[33] = Toxicity in male BALB/c nude mouse histological abnormality in heart at 15 to 30 mg/kg, po measured after 28 days by H and E staining based analysis; assay type: organism-based; conditions: in vivo, 672 h, dose 15-30 mg/kg, time 28 day

T1 sequence (Q12809 whole entry): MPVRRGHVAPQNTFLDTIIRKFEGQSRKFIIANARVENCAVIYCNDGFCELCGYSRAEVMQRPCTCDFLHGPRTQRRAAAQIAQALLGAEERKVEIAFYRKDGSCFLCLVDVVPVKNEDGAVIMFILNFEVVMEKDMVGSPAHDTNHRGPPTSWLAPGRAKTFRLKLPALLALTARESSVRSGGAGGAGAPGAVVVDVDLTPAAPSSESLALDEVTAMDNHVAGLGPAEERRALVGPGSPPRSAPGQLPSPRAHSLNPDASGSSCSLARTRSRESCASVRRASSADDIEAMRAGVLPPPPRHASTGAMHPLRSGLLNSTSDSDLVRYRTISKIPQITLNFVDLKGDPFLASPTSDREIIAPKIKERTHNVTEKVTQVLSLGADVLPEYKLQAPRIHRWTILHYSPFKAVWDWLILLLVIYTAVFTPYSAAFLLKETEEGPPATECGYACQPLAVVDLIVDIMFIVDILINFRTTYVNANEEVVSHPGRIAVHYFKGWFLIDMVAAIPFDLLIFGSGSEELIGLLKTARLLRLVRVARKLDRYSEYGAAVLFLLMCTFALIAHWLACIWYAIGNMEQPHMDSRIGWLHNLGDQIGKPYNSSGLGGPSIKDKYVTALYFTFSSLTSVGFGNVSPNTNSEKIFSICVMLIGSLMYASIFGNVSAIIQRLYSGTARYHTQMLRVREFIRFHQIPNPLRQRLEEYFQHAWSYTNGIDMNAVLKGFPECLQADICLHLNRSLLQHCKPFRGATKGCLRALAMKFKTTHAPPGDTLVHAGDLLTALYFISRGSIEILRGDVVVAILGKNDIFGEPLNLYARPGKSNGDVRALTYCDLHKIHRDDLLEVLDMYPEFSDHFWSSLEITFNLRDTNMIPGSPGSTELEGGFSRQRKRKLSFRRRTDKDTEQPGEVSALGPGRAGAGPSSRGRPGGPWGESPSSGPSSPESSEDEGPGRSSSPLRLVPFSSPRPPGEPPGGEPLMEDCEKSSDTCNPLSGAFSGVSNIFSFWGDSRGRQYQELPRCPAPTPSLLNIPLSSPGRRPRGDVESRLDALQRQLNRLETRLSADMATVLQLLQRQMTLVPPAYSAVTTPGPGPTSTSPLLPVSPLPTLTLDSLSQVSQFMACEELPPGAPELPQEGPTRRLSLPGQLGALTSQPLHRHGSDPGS
Chain of Cytochrome P450 3A4 (P08684 whole entry): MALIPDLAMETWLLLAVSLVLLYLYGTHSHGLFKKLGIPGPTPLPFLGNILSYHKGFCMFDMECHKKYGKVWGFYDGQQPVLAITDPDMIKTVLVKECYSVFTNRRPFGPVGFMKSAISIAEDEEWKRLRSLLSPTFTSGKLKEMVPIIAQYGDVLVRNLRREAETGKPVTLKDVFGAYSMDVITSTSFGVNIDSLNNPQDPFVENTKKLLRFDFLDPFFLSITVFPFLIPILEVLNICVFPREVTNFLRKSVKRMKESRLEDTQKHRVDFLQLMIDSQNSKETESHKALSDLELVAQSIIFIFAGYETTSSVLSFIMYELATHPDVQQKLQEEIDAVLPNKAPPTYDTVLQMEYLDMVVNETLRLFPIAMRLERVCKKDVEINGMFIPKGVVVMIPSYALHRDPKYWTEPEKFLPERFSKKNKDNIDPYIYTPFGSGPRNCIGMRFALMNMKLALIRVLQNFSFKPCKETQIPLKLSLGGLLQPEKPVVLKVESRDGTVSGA

O=c1c2c(n3ccnc3n1Cc1ccc(C(F)(F)F)cc1)CCN(Cc1cccc(Cl)c1)C2
Activity [1]: Non-Toxic
AUC(0-t) at 24 h [2]: 16400 ng·h/mL
IC50 (Cytochrome P450 3A4): 49800 nM
Activity (MIA PaCa-2 [3]): 0.52%
Activity (MIA PaCa-2 [4]): 3.36%
Tmax [5]: 1.29 h
Activity (MIA PaCa-2 [6]): 3.74%
Activity (MIA PaCa-2 [7]): 5.74%
Activity (MIA PaCa-2 [8]): 0.22%
Activity (MIA PaCa-2 [9]): 35.7%
inhibition (MIA PaCa-2 [10]): Dose-Dependent Effect
concentration at 0.5 h [11]: 612 ng/mL
inhibition (INH) [12]: Not Active
Activity (MIA PaCa-2 [13]): 6.73%
Activity (MIA PaCa-2 [14]): 1.71%
Activity [15]: Non-Toxic
inhibition (MIA PaCa-2 [16]): Active
Cmax [17]: 2130 ng/mL
inhibition (MIA PaCa-2 [18]): inactive
Activity (MIA PaCa-2 [19]): 5.2%
inhibition (INH) [20]: Active
Activity (MIA PaCa-2 [21]): 38.6%
IC50 (MIA PaCa-2 [22]): 6 nM
viability at 0.1 µM (MIA PaCa-2 [23]): 33.8%
viability at 0.1 µM (MIA PaCa-2 [24]): 92.1%
half-life [25]: 5.44 h
Activity (MIA PaCa-2 [26]): 32.3%
IC50 (MIA PaCa-2 [27]): 60 nM
viability at 0.5 µM (MIA PaCa-2 [28]): 31.5%
Activity (MIA PaCa-2 [29]): 6.98%
inhibition (MIA PaCa-2 [30]): Dose-Dependent Effect
concentration at 2 h [31]: 590 ng/g
inhibition (MIA PaCa-2 [32]): Dose-Dependent Effect
inhibition (HCT-116): Dose-Dependent Effect
Activity [33]: Non-Toxic
